The record followed here is patent US20230257396A1, “MACROCYCLES AND THEIR USE” (BLOSSOMHILL THERAPEUTICS, INC., priority 2020, published 2023).

What all share (assay): KINOMEscan kinase binding assay (Eurofins/DiscoveRx), % Ctrl
Holding throughout (settings): 1 μM

For experiment [1], the target named is T1, kinases (Homo sapiens, UniProt P10721, D816V).
T1 construct: purchased Eurofins/DiscoveRx; host or cells: E. coli BL21-derived host (T7 phage display) for most kinases; HEK-293 for the rest
T1 sequence (P10721 26-976 D816V): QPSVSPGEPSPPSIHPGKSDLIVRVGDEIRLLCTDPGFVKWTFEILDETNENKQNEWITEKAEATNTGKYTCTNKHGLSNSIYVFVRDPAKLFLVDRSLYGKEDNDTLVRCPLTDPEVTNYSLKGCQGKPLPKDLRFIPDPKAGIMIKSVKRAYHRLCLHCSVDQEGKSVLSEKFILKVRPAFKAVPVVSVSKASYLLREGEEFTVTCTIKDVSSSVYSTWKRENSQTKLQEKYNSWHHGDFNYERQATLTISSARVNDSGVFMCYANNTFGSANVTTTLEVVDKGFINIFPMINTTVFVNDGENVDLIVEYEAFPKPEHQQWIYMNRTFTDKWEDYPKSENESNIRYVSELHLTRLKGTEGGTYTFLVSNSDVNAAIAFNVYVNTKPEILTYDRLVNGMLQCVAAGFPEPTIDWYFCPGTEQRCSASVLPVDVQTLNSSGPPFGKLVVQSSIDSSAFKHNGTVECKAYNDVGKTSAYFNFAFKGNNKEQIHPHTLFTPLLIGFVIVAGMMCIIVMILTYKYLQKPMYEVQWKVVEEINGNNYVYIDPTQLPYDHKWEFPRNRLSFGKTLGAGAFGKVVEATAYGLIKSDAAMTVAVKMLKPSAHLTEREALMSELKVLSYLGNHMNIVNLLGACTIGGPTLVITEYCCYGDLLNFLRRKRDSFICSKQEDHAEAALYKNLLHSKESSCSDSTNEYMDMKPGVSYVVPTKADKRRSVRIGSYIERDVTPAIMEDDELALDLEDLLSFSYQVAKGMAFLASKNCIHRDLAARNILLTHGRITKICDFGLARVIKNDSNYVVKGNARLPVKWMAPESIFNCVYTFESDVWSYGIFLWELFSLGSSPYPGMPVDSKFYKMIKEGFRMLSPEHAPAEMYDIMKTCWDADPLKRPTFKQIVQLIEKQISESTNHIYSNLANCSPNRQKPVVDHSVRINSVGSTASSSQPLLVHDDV
In a few lines:
(§1)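 Competition binding, 1 h RT: phage-tagged or HEK-293-expressed DNA-tagged kinase + immobilized ligand + compound. Eluate kinase by qPCR. % Ctrl = (test − positive ctrl)/(negative ctrl − positive ctrl) × 100; lower means stronger binding.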

For experiment [2], the target named is T2, kinases (Homo sapiens, UniProt P36888, N841I).
T2 construct: purchased Eurofins/DiscoveRx; host or cells: E. coli BL21-derived host (T7 phage display) for most kinases; HEK-293 for the rest
T2 sequence (P36888 27-993 N841I): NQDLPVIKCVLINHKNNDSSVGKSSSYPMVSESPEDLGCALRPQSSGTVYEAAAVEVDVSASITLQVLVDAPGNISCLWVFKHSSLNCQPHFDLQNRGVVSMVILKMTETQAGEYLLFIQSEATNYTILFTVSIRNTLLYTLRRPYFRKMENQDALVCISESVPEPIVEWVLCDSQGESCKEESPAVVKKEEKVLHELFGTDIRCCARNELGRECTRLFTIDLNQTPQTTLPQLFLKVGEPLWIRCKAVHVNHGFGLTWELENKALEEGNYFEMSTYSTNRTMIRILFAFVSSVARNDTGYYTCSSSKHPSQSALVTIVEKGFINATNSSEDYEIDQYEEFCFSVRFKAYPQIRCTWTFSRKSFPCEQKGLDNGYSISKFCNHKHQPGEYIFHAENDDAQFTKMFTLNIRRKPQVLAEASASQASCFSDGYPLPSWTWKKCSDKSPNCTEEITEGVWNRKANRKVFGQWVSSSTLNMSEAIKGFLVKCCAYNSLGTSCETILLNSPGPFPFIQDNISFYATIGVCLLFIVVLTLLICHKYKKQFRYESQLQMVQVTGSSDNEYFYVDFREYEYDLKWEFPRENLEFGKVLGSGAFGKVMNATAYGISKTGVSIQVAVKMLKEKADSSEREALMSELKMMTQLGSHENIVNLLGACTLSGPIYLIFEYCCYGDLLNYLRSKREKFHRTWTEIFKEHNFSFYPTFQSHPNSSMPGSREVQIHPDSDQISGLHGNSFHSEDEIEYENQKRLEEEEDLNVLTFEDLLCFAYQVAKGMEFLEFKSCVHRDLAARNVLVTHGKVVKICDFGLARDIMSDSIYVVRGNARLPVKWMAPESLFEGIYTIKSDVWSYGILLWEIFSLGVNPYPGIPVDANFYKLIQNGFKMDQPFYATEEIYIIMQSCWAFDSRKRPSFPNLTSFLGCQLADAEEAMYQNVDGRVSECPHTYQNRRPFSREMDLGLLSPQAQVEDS
The gist of the method: as §1

The target of experiment [3] is T3, kinases (Homo sapiens, UniProt P00533).
T3 construct: purchased Eurofins/DiscoveRx; host or cells: E. coli BL21-derived host (T7 phage display) for most kinases; HEK-293 for the rest
In a few lines:
as §1

The target in experiment [4] is T4, kinases (Homo sapiens, UniProt P10721, A829P).
T4 construct: purchased Eurofins/DiscoveRx; host or cells: E. coli BL21-derived host (T7 phage display) for most kinases; HEK-293 for the rest
T4 sequence (P10721 26-976 A829P): as the sequence (P10721 26-976 D816V) above, with V791D, A804P counted along it
The gist of the method:
as §1

Experiment [5] concerns the target T5, kinases (Homo sapiens, UniProt P10721).
T5 construct: purchased Eurofins/DiscoveRx; host or cells: E. coli BL21-derived host (T7 phage display) for most kinases; HEK-293 for the rest
In a few lines:
as §1

For experiment [6], the target named is T6, kinases (Homo sapiens, UniProt P10721, V559D).
T6 construct: purchased Eurofins/DiscoveRx; host or cells: E. coli BL21-derived host (T7 phage display) for most kinases; HEK-293 for the rest
T6 sequence (P10721 26-976 V559D): as the sequence (P10721 26-976 D816V) above, with V534D, V791D counted along it
The gist of the method:
as §1

The target of experiment [7] is T7, kinases (Homo sapiens, UniProt P07949, V804L).
T7 construct: purchased Eurofins/DiscoveRx; host or cells: E. coli BL21-derived host (T7 phage display) for most kinases; HEK-293 for the rest
T7 sequence (P07949 29-1114 V804L): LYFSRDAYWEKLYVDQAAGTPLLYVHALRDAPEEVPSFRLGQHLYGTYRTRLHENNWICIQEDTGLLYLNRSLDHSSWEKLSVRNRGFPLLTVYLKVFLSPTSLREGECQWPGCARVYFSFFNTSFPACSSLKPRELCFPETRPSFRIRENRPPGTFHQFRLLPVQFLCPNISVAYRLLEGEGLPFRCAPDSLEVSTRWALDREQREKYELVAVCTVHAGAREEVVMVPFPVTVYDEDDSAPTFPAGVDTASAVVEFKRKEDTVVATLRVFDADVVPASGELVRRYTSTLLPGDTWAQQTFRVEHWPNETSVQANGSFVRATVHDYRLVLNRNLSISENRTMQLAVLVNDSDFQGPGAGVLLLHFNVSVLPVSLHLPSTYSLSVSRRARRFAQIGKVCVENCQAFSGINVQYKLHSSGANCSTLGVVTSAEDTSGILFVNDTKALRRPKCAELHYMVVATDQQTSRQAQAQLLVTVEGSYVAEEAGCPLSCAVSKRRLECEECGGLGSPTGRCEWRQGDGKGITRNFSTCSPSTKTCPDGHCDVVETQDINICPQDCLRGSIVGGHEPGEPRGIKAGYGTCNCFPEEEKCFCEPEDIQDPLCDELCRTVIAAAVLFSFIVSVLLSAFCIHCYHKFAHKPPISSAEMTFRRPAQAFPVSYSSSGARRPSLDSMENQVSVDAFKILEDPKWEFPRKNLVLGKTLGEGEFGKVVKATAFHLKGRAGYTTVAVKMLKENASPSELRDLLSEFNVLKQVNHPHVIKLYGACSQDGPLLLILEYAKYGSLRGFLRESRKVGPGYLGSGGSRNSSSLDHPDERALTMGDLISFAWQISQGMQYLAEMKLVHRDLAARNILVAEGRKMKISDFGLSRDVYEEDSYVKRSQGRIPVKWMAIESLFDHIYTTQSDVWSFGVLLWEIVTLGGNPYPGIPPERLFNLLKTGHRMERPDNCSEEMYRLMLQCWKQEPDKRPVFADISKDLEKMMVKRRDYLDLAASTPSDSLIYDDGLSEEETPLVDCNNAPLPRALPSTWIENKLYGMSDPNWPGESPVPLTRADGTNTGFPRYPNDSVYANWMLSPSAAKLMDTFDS
The gist of the method: as §1

For experiment [8], the target named is T8, kinases (Homo sapiens, UniProt P00533, L861Q).
T8 construct: purchased Eurofins/DiscoveRx; host or cells: E. coli BL21-derived host (T7 phage display) for most kinases; HEK-293 for the rest
The gist of the method: as §1

The target in experiment [9] is T9, kinases (Homo sapiens, UniProt P42684).
T9 construct: purchased Eurofins/DiscoveRx; host or cells: E. coli BL21-derived host (T7 phage display) for most kinases; HEK-293 for the rest
T9 sequence (P42684 whole entry): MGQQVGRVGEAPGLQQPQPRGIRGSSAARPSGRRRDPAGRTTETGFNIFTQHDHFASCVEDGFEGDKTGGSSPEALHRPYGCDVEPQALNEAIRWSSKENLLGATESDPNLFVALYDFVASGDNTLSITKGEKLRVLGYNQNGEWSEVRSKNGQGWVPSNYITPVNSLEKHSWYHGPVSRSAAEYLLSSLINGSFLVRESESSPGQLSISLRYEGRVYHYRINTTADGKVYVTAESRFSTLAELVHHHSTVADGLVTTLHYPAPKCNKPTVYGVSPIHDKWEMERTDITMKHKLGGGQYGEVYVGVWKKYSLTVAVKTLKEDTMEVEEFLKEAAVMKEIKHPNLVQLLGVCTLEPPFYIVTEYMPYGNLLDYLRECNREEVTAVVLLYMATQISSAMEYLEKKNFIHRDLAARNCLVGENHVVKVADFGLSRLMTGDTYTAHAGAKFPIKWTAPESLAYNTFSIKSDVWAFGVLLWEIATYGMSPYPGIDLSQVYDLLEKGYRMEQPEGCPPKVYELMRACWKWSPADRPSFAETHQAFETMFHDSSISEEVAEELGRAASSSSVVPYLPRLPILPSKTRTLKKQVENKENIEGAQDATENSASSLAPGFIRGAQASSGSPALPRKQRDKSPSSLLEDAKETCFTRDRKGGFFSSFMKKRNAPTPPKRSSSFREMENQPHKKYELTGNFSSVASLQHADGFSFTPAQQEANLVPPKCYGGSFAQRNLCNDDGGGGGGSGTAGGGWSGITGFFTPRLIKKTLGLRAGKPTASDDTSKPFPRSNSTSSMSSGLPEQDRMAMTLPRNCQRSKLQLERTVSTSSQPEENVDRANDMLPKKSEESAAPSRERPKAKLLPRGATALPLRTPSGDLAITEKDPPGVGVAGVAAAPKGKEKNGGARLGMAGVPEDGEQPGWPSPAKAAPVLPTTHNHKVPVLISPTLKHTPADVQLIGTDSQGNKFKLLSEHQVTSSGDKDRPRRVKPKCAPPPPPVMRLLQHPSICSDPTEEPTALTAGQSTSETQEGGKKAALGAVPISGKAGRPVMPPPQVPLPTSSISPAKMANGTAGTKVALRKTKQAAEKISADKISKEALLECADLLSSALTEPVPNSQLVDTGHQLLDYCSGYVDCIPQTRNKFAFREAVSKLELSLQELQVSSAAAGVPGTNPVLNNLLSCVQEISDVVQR
In a few lines: as §1

The target in experiment [10] is T10, kinases (Homo sapiens, UniProt P00519, F317I).
T10 construct: purchased Eurofins/DiscoveRx; host or cells: E. coli BL21-derived host (T7 phage display) for most kinases; HEK-293 for the rest
T10 sequence (P00519 whole entry F317I): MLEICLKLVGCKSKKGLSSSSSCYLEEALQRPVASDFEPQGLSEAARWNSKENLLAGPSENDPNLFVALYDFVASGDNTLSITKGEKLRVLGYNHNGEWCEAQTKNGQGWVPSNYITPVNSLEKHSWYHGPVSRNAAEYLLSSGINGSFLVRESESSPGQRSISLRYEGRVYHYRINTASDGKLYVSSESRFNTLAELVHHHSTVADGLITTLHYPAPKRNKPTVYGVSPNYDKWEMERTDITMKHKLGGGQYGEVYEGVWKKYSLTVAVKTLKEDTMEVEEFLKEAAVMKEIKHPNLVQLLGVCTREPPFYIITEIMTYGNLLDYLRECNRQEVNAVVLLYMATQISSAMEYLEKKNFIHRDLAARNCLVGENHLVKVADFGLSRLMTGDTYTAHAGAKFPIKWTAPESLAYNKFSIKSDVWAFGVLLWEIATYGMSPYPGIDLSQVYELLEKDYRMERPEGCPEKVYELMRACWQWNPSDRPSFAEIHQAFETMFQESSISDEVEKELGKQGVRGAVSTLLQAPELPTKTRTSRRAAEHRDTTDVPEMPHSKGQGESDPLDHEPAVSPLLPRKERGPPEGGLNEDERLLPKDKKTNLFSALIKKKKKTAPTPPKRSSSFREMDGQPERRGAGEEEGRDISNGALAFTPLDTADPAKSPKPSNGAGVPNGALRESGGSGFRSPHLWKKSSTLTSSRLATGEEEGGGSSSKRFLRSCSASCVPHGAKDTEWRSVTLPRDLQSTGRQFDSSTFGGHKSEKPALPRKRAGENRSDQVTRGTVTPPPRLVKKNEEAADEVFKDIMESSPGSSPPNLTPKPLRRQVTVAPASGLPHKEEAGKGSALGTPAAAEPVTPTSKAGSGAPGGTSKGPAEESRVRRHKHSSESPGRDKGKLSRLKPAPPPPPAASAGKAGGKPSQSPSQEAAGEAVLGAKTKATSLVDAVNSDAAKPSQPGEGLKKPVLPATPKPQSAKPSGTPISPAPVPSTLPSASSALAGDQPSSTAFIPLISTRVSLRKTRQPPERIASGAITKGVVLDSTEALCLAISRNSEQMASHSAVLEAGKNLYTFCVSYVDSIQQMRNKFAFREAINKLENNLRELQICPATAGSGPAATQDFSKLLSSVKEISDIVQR
The gist of the method:
as §1

The target in experiment [11] is T11, kinases (Homo sapiens, UniProt P10721, V559D/V654A).
T11 construct: purchased Eurofins/DiscoveRx; host or cells: E. coli BL21-derived host (T7 phage display) for most kinases; HEK-293 for the rest
T11 sequence (P10721 26-976 V559D/V654A): as the sequence (P10721 26-976 D816V) above, with V534D, V629A, V791D counted along it
In a few lines: as §1

T5 sequence (P10721 26-976): as the sequence (P10721 26-976 D816V) above, with V791D counted along it

For `Cc1cc2c([nH]1)/C=C1\C(=O)Nc3cc(Cl)c(cc31)OCCO[C@@H](C(=O)NC1CCNCC1)CN(C)C2=O` [Ex. 134, [7R,16a(17)Z]-19-chloro-2,5-dimethyl-4,16-dioxo-N-(piperidin-4-yl)-4,5,6,7,9,10,15,16-octahydro-1H-12,14-(ethaneidylidene)dipyrrolo[3,2-i:3′,4′-l][1,4,7]dioxazacyclopentadecine-7-carboxamide], the “% Ctrl, KIT(D816V)” value at kinases [1] (KIT(D816V)) was determined as 56 % Ctrl. Also, on kinases [2] (FLT3(N841I)), the “% Ctrl, FLT3(N841I)” value was 26 % Ctrl. The “% Ctrl, EGFR” value on kinases [3] (EGFR) was 96 % Ctrl. Also, the “% Ctrl, KIT(A829P)” value on kinases [4] (KIT(A829P)) stood at 69 % Ctrl. On kinases [5] (KIT), the “% Ctrl, KIT” value stood at 60 % Ctrl. Moreover, at kinases [5] (KIT-autoinhibited), the “% Ctrl, KIT-autoinhibited” value stood at 94 % Ctrl. On kinases [6] (KIT(V559D)), the “% Ctrl, KIT(V559D)” value was 43 % Ctrl. In addition, the “% Ctrl, RET(V804L)” value at kinases [7] (RET(V804L)) is 55 % Ctrl. The “% Ctrl, EGFR(L861Q)” value on kinases [8] (EGFR(L861Q)) is 95 % Ctrl. Also, the “% Ctrl, ABL2” value at kinases [9] (ABL2) was 77 % Ctrl. Further, the “% Ctrl, ABL1(F317I)-nonphosphorylated” value on kinases [10] (ABL1(F317I)-nonphosphorylated) is 84 % Ctrl. The “% Ctrl, ABL1(F317I)-phosphorylated” value on kinases [10] (ABL1(F317I)-phosphorylated) was determined as 70 % Ctrl. Moreover, on kinases [11] (KIT(V559D, V654A)), the “% Ctrl, KIT(V559D, V654A)” value stood at 64 % Ctrl.
Consider `Cc1cc2c([nH]1)/C=C1\C(=O)Nc3ccc(cc31)-c1c(noc1C(C)C)COCCN(C)C2=O` [Ex. 161, [3a(4)Z]-9-methyl-16-(propan-2-yl)-10,11-dihydro-2H,13H-1,17-(ethanediylidene)[1,2]oxazolo[4,3-m]dipyrrolo[3,2-f:3′,4′-i][1,4]oxazacyclopentadecine-3,8(5H,9H)-dione], for which the “% Ctrl, KIT(D816V)” value on kinases [1] (target KIT(D816V)) is reported as 100 % Ctrl. Moreover, the “% Ctrl, FLT3(N841I)” value on kinases [2] (target FLT3(N841I)) is reported as 39 % Ctrl. For the same compound, on kinases [3] (target EGFR), the “% Ctrl, EGFR” value was 73 % Ctrl. Also, the “% Ctrl, KIT(A829P)” value on kinases [4] (target KIT(A829P)) is on record as 95 % Ctrl. Further, the “% Ctrl, KIT” value at kinases [5] (target KIT) was 98 % Ctrl. Besides, the “% Ctrl, KIT-autoinhibited” value at kinases [5] (target KIT-autoinhibited) came to 100 % Ctrl. The “% Ctrl, KIT(V559D)” value at kinases [6] (target KIT(V559D)) is reported as 92 % Ctrl. Further, the “% Ctrl, RET(V804L)” value at kinases [7] (target RET(V804L)) came out at 72 % Ctrl. Further, the “% Ctrl, EGFR(L861Q)” value at kinases [8] (target EGFR(L861Q)) is listed as 100 % Ctrl. The “% Ctrl, ABL2” value at kinases [9] (target ABL2) is listed as 87 % Ctrl. Moreover, the “% Ctrl, ABL1(F317I)-nonphosphorylated” value on kinases [10] (target ABL1(F317I)-nonphosphorylated) was 100 % Ctrl. Further, the “% Ctrl, ABL1(F317I)-phosphorylated” value on kinases [10] (target ABL1(F317I)-phosphorylated) is 91 % Ctrl. The “% Ctrl, KIT(V559D, V654A)” value at kinases [11] (target KIT(V559D, V654A)) was found to be 87 % Ctrl.
As to `Cc1cc2c([nH]1)/C=C1\C(=O)Nc3ccc(cc31)-c1ccnn1CCNCCNC2=O` [Ex. 43, [19a(20)Z]-2-methyl-5,6,7,8,9,10-hexahydro-15,17-(ethanediylidene)pyrazolo[1,5-g]dipyrrolo[3,4-k:2′,3′-n][1,4,7]triazacyclohexadecine-4,19(1H,18H)-dione], the “% Ctrl, KIT(D816V)” value on kinases [1] (KIT(D816V)) was 96 % Ctrl. On kinases [2] (FLT3(N841I)), the “% Ctrl, FLT3(N841I)” value is listed as 98 % Ctrl. Further, on kinases [3] (EGFR), the “% Ctrl, EGFR” value was found to be 61 % Ctrl. Further, the “% Ctrl, KIT(A829P)” value at kinases [4] (KIT(A829P)) is recorded as 77 % Ctrl. Also, the “% Ctrl, KIT” value at kinases [5] (KIT) is given as 100 % Ctrl. The “% Ctrl, KIT-autoinhibited” value on kinases [5] (KIT-autoinhibited) stood at 81 % Ctrl. The “% Ctrl, KIT(V559D)” value at kinases [6] (KIT(V559D)) stood at 100 % Ctrl. Moreover, at kinases [7] (RET(V804L)), the “% Ctrl, RET(V804L)” value was determined as 100 % Ctrl. Also, the “% Ctrl, EGFR(L861Q)” value at kinases [8] (EGFR(L861Q)) is recorded as 90 % Ctrl. Further, at kinases [9] (ABL2), the “% Ctrl, ABL2” value was 100 % Ctrl. For the same compound, the “% Ctrl, ABL1(F317I)-nonphosphorylated” value on kinases [10] (ABL1(F317I)-nonphosphorylated) is reported as 68 % Ctrl. Further, the “% Ctrl, ABL1(F317I)-phosphorylated” value at kinases [10] (ABL1(F317I)-phosphorylated) is 94 % Ctrl. Further, at kinases [11] (KIT(V559D, V654A)), the “% Ctrl, KIT(V559D, V654A)” value is on record as 100 % Ctrl.
